Results on 2 compounds are retold here after patent publication US11066447B2, “Aureobasidium derivatives and methods of synthesis” (AureoGen Biosciences, Inc., priority 2016, dated 2021).

Test [1] has as its system A. fumigatus MMX 5280 ATCC MYA-3626. As to the kind of experiment: MIC/MEC assay (CLSI microdilution). In kind it is cell-based, Aspergillus fumigatus. Here is the method: (§1) Aureobasidin and test compounds (i.e., AbA derivatives of the present invention) were received from Kalexsyn, Inc. (Kalamazoo, Mich.) as powder and were stored at 4° C. until the day of assay. […] amphotericin was obtained from Sigma Aldrich and stored under like conditions. […] Ethanol (95%) was used as a solvent and diluent for all AbA compounds. Amphotericin B was tested from 0.06-64 μg/mL. Amphotericin B (Sigma Aldrich; St. Louis, Mo.; Cat No. A9528-100MG, Lot No. 120M4087) was dissolved and diluted with dimethylsulfoxide (DMSO; Sigma Aldrich; St. Louis, Mo.; Cat No. 472301 Lot No. SHBD2072V).
(§2) The solvents were added to the test agents and the stock solutions stood for approximately 1 hr at room temperature prior to use to auto sterilize. Stock solutions were prepared at 40× the desired top concentration in the test plate.
(§3) All of the test isolates were originally received from either the American Type Culture Collection (ATCC), clinical labs, or directly from Aureogen Biosciences. Organisms stored by Micromyx were cultured on agar medium appropriate to each organism. Colonies were picked by swab from the isolation plates and put into suspension in appropriate broth containing cryoprotectant. The suspensions were aliquoted into cryogenic vials and maintained at −80° C.
(§4) Prior to testing, Candida isolates were streaked from the frozen vials on Sabouraud dextrose agar. The yeast isolates were incubated for 48 hours at 35° C. before use. The fungal isolates were obtained from enumerated fungal stocks previously prepared at Micromyx and stored in phosphate buffered saline at 4° C.
(§5) Test Media. The medium employed for the MIC assay was RPMI-1640 medium from HyClone Laboratories (Logan, Utah; Lot No. AYB60287A). The medium was prepared according to Clinical and Laboratory Standards Institute (CLSI) guidelines (1, 2), and modified to include 0.002% Tween-80. Candida parapsilosis ATCC 22019 (MMX 2323) and Aspergillus fumigatus ATCC MYA-3626 (MMX 5280) were also tested without Tween-80 to provide data for the quality control of amphotericin B in accordance with CLSI (3) and to assess the effect of Tween-80 on the activity of the test agents.
(§6) Test Procedure. The MIC assay method followed the procedure described by CLSI (1, 2) and employed automated liquid handlers to conduct serial dilutions and liquid transfers. Automated liquid handlers included the Multidrop 384 (Labsystems, Helsinki, Finland), Biomek 2000 and Biomek FX (Beckman Coulter, Fullerton Calif.). The wells in columns 2-12 in standard 96-well microdilution plates (Costar 3795) were filled with 150 μl of the appropriate diluent (95% EtOH for investigational compounds, 100% DMSO for amphotericin B). These assay plates would become the ‘mother plates’ from which the assay ‘daughter plates’ would be prepared. The drugs (300 μL at 40× the desired top concentration in the test plates) were dispensed into the appropriate well in Column 1 of the mother plates. The Biomek 2000 was used to make two-fold serial dilutions through Column 11 in the “mother plate”. The wells of Column 12 contained no drug and served as the organism growth control wells.
(§7) The daughter plates were loaded with 185 μL per well on the Multidrop 384 with RPMI plus 0.002% Tween-80 or RPMI containing no Tween-80 for the testing of the two QC isolates. The daughter plates were prepared on the Biomek FX instrument which transferred 5 μL of drug solution from each well of a mother plate to each corresponding well of each daughter plate in a single step.
(§8) A standardized inoculum of each organism was prepared per CLSI methods (1, 2). For the Candida isolates, colonies were picked from the streak plate and a suspension was prepared in RPMI to equal a 0.5 McFarland standard. This suspension was diluted 1:100 in RPMI resulting in a final concentration of approximately 0.5-2.5×10^3 CFU/mL. […]

Test [2] concerns A. fumigatus MMX 6782 ATCC 13073. The experiment in a line: MIC/MEC assay (CLSI microdilution). In kind it is cell-based. Conditions: Aspergillus fumigatus, ATCC13073, 48 h. Here is the method: as §1, §2, §3, §4, §5, §6, §7, §8
(In general: In broth dilution the organism is exposed to a series of concentrations in liquid medium.)

Test [3] has as its system A. fumigatus MMX 5944. As to the kind of experiment: MIC/MEC assay (CLSI microdilution). In kind it is cell-based. Here is the method:
as §1, §2, §3, §4, §5, §6, §7, §8

In test [4] the test system is A. niger MMX 0624 ATCC 16888. The experiment in a line: MIC/MEC assay (CLSI microdilution). The format is cell-based. Conditions: Aspergillus niger, ATCC16888, 48 h. Here is the method:
as §1, §2, §3, §4, §5, §6, §7, §8

In test [5] the test system is A. flavus MMX 5948. As to the kind of experiment: MIC/MEC assay (CLSI microdilution). The format is cell-based. Here is the method: as §1, §2, §3, §4, §5, §6, §7, §8
In test [6] the test system is C. parapsilosis MMX 2323 ATCC 22019. As to the kind of experiment: MIC assay (CLSI microdilution). The format is cell-based, Candida parapsilosis. Here is the method:
as §1, §2, §3, §4, §5, §6, §7, §8

Test [7] relates to C. neoformans MMX 0634 ATCC 90112. As to the kind of experiment: MIC assay (CLSI microdilution). In kind it is cell-based. The following applies: Cryptococcus neoformans, ATCC90112, RPMI plus 0.002% Tween-80; read-out: MIC. The method, then: as §1, §2, §3, §4, §5, §6, §7, §8
In test [8] the test system is A. fumigatus from Aureogen. The experiment in a line: MIC/MEC assay (CLSI microdilution). In kind it is cell-based. Here is the method:
as §1, §2, §3, §4, §5, §6, §7, §8

The subject of test [9] is A. fumigatus MMX 6781 ATCC MYA-4609. The experiment in a line: MIC/MEC assay (CLSI microdilution). In kind it is cell-based. Conditions: Aspergillus fumigatus. The method, then: as §1, §2, §3, §4, §5, §6, §7, §8
The mark [10] stands for this setting: read-out: MEC, RPMI plus 0.002% Tween-80.
[11] abbreviates: RPMI plus 0.002% Tween-80, 48 hr.
Where [12] appears, read: Aspergillus fumigatus, 48 h, RPMI plus 0.002% Tween-80, read-out: MIC.
Setting [13] is: RPMI plus 0.002% Tween-80, read-out: MIC.

In brackets after ≈: the same amount, converted by molar mass. Several values for one entry are separate records, joined by “and”; a condition that tells them apart may be missing. Equal entries are not always repeated. Where two headings read alike, the source gives them in different places. Numbered stars: 1 amine (or outer) side, 2 acyl side, 3 side chain; on linkers, the order of the positions; unused ones are H or OH. Square brackets hold non-standard residues; d marks the D form. Peptide text beside a SMILES is read from it. ξ: configuration not given here. X4 = CN1CCN(c2cc(-c3cccc(C[C@@H](C(=O)[*:2])N(C)[*:1])c3)ccn2)CC1; X5 = CN([C@@H](Cc1cccc(-c2ccc3cnccc3c2)c1)C(=O)[*:2])[*:1]; Hmp(2R,3S) = CC[C@H](C)[C@@H](O)C(=O)O; NMeVal(β-OH) = CN[C@H](C(=O)O)C(C)(C)O; X6 = CCC(C)[C@@H](O[*:1])C(=O)[*:2]; Ile(3ξ) = CCC(C)[C@H](N)C(=O)O; NMeV = CN[C@H](C(=O)O)C(C)C; ξL = CC(C)CC(N)C(=O)O

As usually defined, the MIC is the smallest concentration in the dilution series that meets the test's criterion for growth inhibition. For `CCC(C)[C@@H]1NC(=O)[C@@H]2CCCN2C(=O)[C@H](Cc2cccc(-c3ccc4cnccc4c3)c2)N(C)C(=O)[C@H](Cc2ccccc2)NC(=O)[C@H](C(C)C)N(C)C(=O)[C@@H](C(C)CC)OC(=O)[C@H](C(C)(C)O)N(C)C(=O)C(CC(C)C)NC(=O)[C@H](C(C)C)N(C)C1=O` (stereo partly drawn) [Compound 6] (cyclo(F[X5]P[Ile(3ξ)][NMeV][ξL][NMeVal(β-OH)][X6][NMeV])), the minimal effective concentration was 1 µg/mL in test [1] (Aspergillus fumigatus, 48 h, read-out: MEC, RPMI plus 0.002% Tween-80); 2 µg/mL in test [1] (Aspergillus fumigatus, 48 h, read-out: MEC, Without Tween-80); 0.25 µg/mL in test [2] (setting [10]); 0.12 µg/mL in test [4] (setting [10]). The MIC in test [1] (Without Tween-80, 48 hr) was more than 64 µg/mL; in [4] (RPMI plus 0.002% Tween-80), 0.12 µg/mL; in test [5] (Aspergillus flavus, MMX5948, 48 h, RPMI plus 0.002% Tween-80), 0.25 µg/mL; in test [6] (ATCC22019, RPMI plus 0.002% Tween-80), 0.12 µg/mL; in test [6] (ATCC22019, Without Tween-80), 1 µg/mL (≈ 0.814 µM). Also, the MEC in test [3] (setting [11]) turned out to be 0.5 µg/mL.

As to `CC[C@H](C)[C@@H]1NC(=O)[C@@H]2CCCN2C(=O)[C@H](Cc2cccc(-c3ccnc(N4CCN(C)CC4)c3)c2)N(C)C(=O)[C@H](Cc2ccccc2)NC(=O)[C@H](C(C)C)N(C)C(=O)[C@@H]([C@@H](C)CC)OC(=O)[C@H](C(C)(C)O)N(C)C(=O)[C@H](CC(C)C)NC(=O)[C@H](C(C)C)N(C)C1=O` [Compound 15] (cyclo(F[X4]PI[NMeV]L[NMeVal(β-OH)][Hmp(2R,3S)][NMeV])), the MIC was found to be 0.06 µg/mL in [7]; 0.25 µg/mL in test [1] (setting [12]); 1 µg/mL (≈ 0.783 µM) in [1] (Aspergillus fumigatus, 48 h, Without Tween-80, read-out: MIC); 2 µg/mL (≈ 1.57 µM) in test [1] (Without Tween-80, 48 hr); 0.25 µg/mL in test [8] (setting [12]); 0.25 µg/mL in [8] (setting [11]). For the same compound, the MIC in test [2] (setting [13]) was found to be 0.5 µg/mL; in [3] (Aspergillus fumigatus, MMX5944, 48 h, RPMI plus 0.002% Tween-80, read-out: MIC), 0.5 µg/mL; in test [4] (setting [13]), 0.03 µg/mL; in test [5] (Aspergillus flavus, MMX5948, 48 h, RPMI plus 0.002% Tween-80, read-out: MIC) it was 0.25 µg/mL; in test [5] (setting [11]), 0.25 µg/mL; in [9] (48 h, RPMI plus 0.002% Tween-80, read-out: MIC) it was 0.25 µg/mL. Further, the MIC worked out at 0.03 µg/mL in test [6] (ATCC22019, RPMI plus 0.002% Tween-80, read-out: MIC); 0.5 µg/mL (≈ 0.392 µM) in test [6] (ATCC22019, Without Tween-80, read-out: MIC); 0.5 µg/mL (≈ 0.392 µM) in test [6] (Without Tween-80). The minimal effective concentration in [1] (Aspergillus fumigatus, 48 h, RPMI plus 0.002% Tween-80, read-out: MEC) stood at 0.12 µg/mL; in [8] (Aspergillus fumigatus, 48 h, RPMI plus 0.002% Tween-80), 0.06 µg/mL; in test [3] (Aspergillus fumigatus, MMX5944, 48 h, RPMI plus 0.002% Tween-80), 0.06 µg/mL; in test [9] (setting [11]), 0.12 µg/mL. The MEC in test [1] (Without Tween-80, 48 hr) was 1/1 μg/mL and 1 μg/mL.
